Data set [1] relates to dogs with clinically overt heart failure due to valve insufficiency. Description: Double-blind randomized positive controlled multi-centre field trial, pimobendan versus benazepril. As to conditions: for dogs that died or were euthanised due to cardiac reasons: 56-days study period, 41 dogs pimobendan group, 35 dogs benazepril group; for ISACHC classification Ib (Score=2), no clinical symptoms, share of cases / overall efficacy rated as very good or good, share of cases: Day 56; for ISACHC heart failure classification improved, share of cases: after the 56 day treatment period; for median survival time: long-term survival data. It counts as in vivo, dog. The method, then:
A double-blind randomized positive controlled multi-centre field trial has been carried out in order to evaluate the clinical efficacy of pimobendan treatment at a daily dose of 0.4-0.6 mg/kg in comparison to an angiotensin-converting-enzyme (ACE) inhibitor treatment with benazepril hydrochloride at a daily dose of approximately 0.25-0.5 mg/kg body weight. Both treatments could be combined with furosemide (up to 8 mg/kg per day) or anti-arrhythmic drugs as appropriate. The study was conducted at 11 centers in Europe by experienced veterinary cardiologists under the rules of Good Clinical Practice (GCP). Mandatory minimum duration of treatment was 56 days for each patient. Dogs were examined on Day 0 prior to first treatment and on Day 7 and 56 after initiation of therapy. In order to obtain long-term survival data, the investigator had the option to continue therapy after Day 56. In the optional study period treatment code for the animal was decoded, as it was not allowed to add pimobendan to the benazepril group, in order to maintain an appropriate […] control group. All other licensed concomitant therapies were allowed. For survival analysis, animals that dropped out or changed treatment due to therapy failure were also rated as dead. However, these cases were statistically evaluated as censored data.
Primary parameter for conclusion on efficacy was the clinical severity of heart failure symptoms, classified according to the recommendations of the International Small Animal Cardiac Health Council (ISACHC). Secondary parameters were exercise tolerance, demeanor, findings of the respiratory and circulatory system, overall efficacy rating, as well as, echocardiography data.
Overall 76 dogs, 41 dogs in the pimobendan group and 35 dogs in the benazepril group were included. […] Mean duration of symptoms prior to inclusion was 4.05 months in the pimobendan and 2.77 months in the benazepril group. There were no clinically relevant differences between the groups prior to initiation of therapy in any of the parameters investigated.
The radiographs have been made in a left to right lateral view. For the determination of cardiac size a vertebral scale system was used.
In the lateral radiographs, the long axis of the heart (L) was measured with a caliper extending from the ventral aspect of the left main stem bronchus (tracheal bifurcation hilus, carina) to the most distant contour of the left ventricular apex. The caliper was repositioned along the vertebral column beginning at the cranial edge of the 4th thoracic vertebra. The length of the heart was recorded as the number of vertebrae caudal of that point and estimated to the nearest 0.1 of a vertebra. The maximum perpendicular short axis (S) was measured in the same manner beginning at the 4th thoracic vertebra.
The length in vertebrae (v) of the long and short axes were then added to obtain a vertebral heart sum (VHS) which provided a single number representing heart size proportionate to the size of the dog. The normal range of VHS in healthy dogs is 8.5 v to 10.5 v (mean of 9.7 v).

A further data set deals with dogs with DCM. The following applies: dogs with DCM in the LIVE study; cited from earlier work.
Data set [2] concerns Cocker spaniels and Dobermanns with DCM. The following applies: for mean survival time / survival time, range: in addition to digoxin, enalapril, furosemide. The text has this:
A double-blind study has been carried out in order to evaluate the long-term efficacy and tolerance to pimobendan and its effect on long-term survival in cocker spaniels and Dobermanns with DCM.
Materials and Methods: Cocker spaniels (n=10) and Dobermanns (n=10) presenting to the Cardiopulmonary Service of the R(D)SVS with DCM were recruited for the study with owners' consent. After stabilization on conventional therapy with digoxin, enalapril, and furosemide, dogs received in addition either pimobendan (Vetmedin®) or placebo using a double-blind study design.

The subject of data set [3] is dogs suffering of occult dilated cardiomyopathy. As to the kind of experiment: Study in dogs with occult dilated cardiomyopathy (ISACHC class I). It counts as in vivo, dog. The text has this:
A study is done with pimobendan ([…]®) in dogs suffering of occult dilated cardiomyopathy. Inclusion criteria were dogs which are diagnosed to have a congestive heart failure of class I according to the […]-score due to dilated cardiomyopathy (DCM). Dogs having a having an asymptomatic (occult) heart failure, e.g. asymptomatic DCM must have reduced contractility of the heart or other signs of reduced cardiac efficacy such as volume overload or ventricle dilatation as confirmed by echocardiography. The dogs stay under mono-therapy until signs of congestive heart failure are developing, deteriorate to heart insufficiency score ([…]) class II or III a or b. After confirmation of the congestion by X-ray-radiography the dogs receive furosemid treatment or if the clinical or echocardiographic results makes the addition of another heart failure treatment necessary (primary endpoint). The dogs will be investigated at day 0 prior to first treatment and then approximately 3 month post initiation of the therapy. […] An Echo is performed prior to initiation of therapy (Day 0) and at the following visits to support the clinical diagnosis and to evaluate the effect of the drugs on the contractility of the heart. The echocardiography is performed according to the cardiologic case report form for Irish Wolfhounds. The primary parameter investigated will be the heart insufficiency score ([…]). […]

The test system of data set [4] is human patients with heart failure. As to conditions: long-term oral use; cited from earlier work.
The mark [5] stands for this setting: Visit 1 (Day 0, prior to first treatment).

Counter-ions that a name gives are not always drawn. Like-named read-outs stand apart in the source and are kept apart here.

Take `CCOC(=O)[C@H](CCc1ccccc1)N[C@H]1CCc2ccccc2N(CC(=O)O)C1=O` [benazepril, benazepril hydrochloride]: in data set [1], the “dogs that died or were euthanised due to cardiac reasons” value is 7 dogs; the “ISACHC classification Ib (Score=2), no clinical symptoms, share of cases” value is given as 48%; the “overall efficacy rated as very good or good, share of cases” value turned out to be 41%; the “ISACHC heart failure classification improved, share of cases” value was 56%. The compound also came in with a median survival time in data set [1] of 228 days.
`CCOC(=O)[C@H](CCc1ccccc1)N[C@@H](C)C(=O)N1CCC[C@H]1C(=O)O` [enalapril]: in the data set with dogs with DCM, the “time to treatment failure” value was 142.8 days.
As to `COc1ccc(-c2nc3ccc(C4=NNC(=O)CC4C)cc3[nH]2)cc1` (stereo not drawn) [pimobendan, 4,5-dihydro-6-[2-(4-methoxyphenyl)-1H-benzimidazol-5-yl]-5-methyl-3(2H)-p-yridazone], in data set [2] (Dobermanns with DCM), the mean survival time turned out to be 280 days and the “survival time, range” value was 42 to 369 days. For the same compound, the “NYHA-class status of the patient” value in data set [2] (both breeds, addition to standard treatment regimen) is reported as “significant improvement”. Also, in data set [2] (cocker spaniels with DCM), the mean survival time is 612 days and the “survival time, range” value was in the range of 61 to 1428 days. Further, the “tolerance / treatment-related adverse effects” value in data set [2] (dog, in vivo) is “well tolerated and no treatment-related adverse effects were noted”. Also, in data set [1], the “dogs that died or were euthanised due to cardiac reasons” value is listed as 2 dogs; the “ISACHC classification Ib (Score=2), no clinical symptoms, share of cases” value was 76%; the “overall efficacy rated as very good or good, share of cases” value was found to be 85%; the “ISACHC heart failure classification improved, share of cases” value is reported as 84%. Further, the median survival time in data set [1] was found to be 430 days. In data set [1] (setting [5]), the “vertebral heart sum, Max.” value worked out at 14.5 v; the “vertebral heart sum, Mean” value is listed as 11.83 v; the “vertebral heart sum, Median” value is 11.60 v; the “vertebral heart sum, Min.” value is given as 9 v. In data set [1] (Visit 3 (Day 56)), the “vertebral heart sum, Max.” value is given as 14.1 v; the “vertebral heart sum, Mean” value is recorded as 11.71 v; the “vertebral heart sum, Median” value came to 11.60 v; the “vertebral heart sum, Min.” value was 9.0 v. Further, in data set [1] (Visit 3-1 (Day 56 minus Day 0)), the “change in mean heart size (vertebral heart sum), Mean” value is listed as −0.15 v; the “vertebral heart sum, change from baseline, Max.” value is on record as 0.8 v; the “vertebral heart sum, change from baseline, Median” value is reported as 0.00 v; the “vertebral heart sum, change from baseline, Min.” value is recorded as −1.9 v. Further, the “Left Ventricular Reverse Remodeling (LVRR), share of treated dogs” value in data set [3] (dogs with asymptomatic DCM) is reported as about 80%. For the same compound, in data set [3] (interim analysis after 4 years, mono-therapy), the “dogs that went into the state of clinical symptoms (Class II)” value is listed as “significantly less dogs”. In data set [4], the effects on survival entry was “without significantly adverse effects on survival”; the “exercise tolerance and quality of life” value was “improvement in exercise tolerance and quality of life”.
